Consider 16 molecules from patent US12129312B2, “Peptide compound, application thereof and composition containing same” (priority 2017, dated 2024).

pEC50: −log10 of the molar value. Numbered stars: 1 amine (or outer) side, 2 acyl side, 3 side chain; on linkers, the order of the positions; unused ones are H or OH. Square brackets hold non-standard residues; d marks the D form. Peptide text beside a SMILES is read from it. * marks the point of attachment. PEG8 = NCCOCCOCCOCCOCCOCCOCCOCCOCCC(=O)O; X6 = CCCN([C@@H](CC(C)C)C(=O)[*:2])[*:1]; 2Nal = N[C@@H](Cc1ccc2ccccc2c1)C(=O)O; X10 = CN(C)[C@H](Cc1ccc(O)cc1)C(=O)*; dNMeY = CN[C@H](Cc1ccc(O)cc1)C(=O)O; Cyclohexylacetyl = O=C(CC1CCCCC1)*; Hydrocinnamoyl = O=C(CCc1ccccc1)*; Palmitoyl = CCCCCCCCCCCCCCCC(=O)*; NEtLeu = CCN[C@@H](CC(C)C)C(=O)O; Myristoyl = CCCCCCCCCCCCCC(=O)*; Tic = O=C(O)[C@@H]1Cc2ccccc2CN1; dTic = O=C(O)[C@H]1Cc2ccccc2CN1; NMeL = CN[C@@H](CC(C)C)C(=O)O; NMehSer = CN[C@@H](CCO)C(=O)O; Lauroyl = CCCCCCCCCCCC(=O)*; d(hSer) = N[C@H](CCO)C(=O)O; NMeS = CN[C@@H](CO)C(=O)O; Hexanoyl = CCCCCC(=O)*; βAla = NCCC(=O)O

For the experiment, the target named is T1, human Chemokine like receptor 1 (Homo sapiens, UniProt Q99788).
T1 construct: host or cells: U2OS (Tango CMKLR1-bla U2OS)
T1 sequence (Q99788 1-373): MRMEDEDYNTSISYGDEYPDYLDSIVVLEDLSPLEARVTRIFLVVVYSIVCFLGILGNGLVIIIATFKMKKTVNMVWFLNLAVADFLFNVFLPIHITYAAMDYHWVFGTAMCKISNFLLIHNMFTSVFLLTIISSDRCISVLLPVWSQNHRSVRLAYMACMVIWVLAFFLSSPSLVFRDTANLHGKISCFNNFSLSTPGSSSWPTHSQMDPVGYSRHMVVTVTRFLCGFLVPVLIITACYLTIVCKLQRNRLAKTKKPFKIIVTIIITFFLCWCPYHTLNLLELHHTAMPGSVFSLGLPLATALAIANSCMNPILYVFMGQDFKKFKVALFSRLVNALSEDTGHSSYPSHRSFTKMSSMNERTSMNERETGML
The experiment is described as follows: Activation of Tango CMKLR1-bla U2OS cells (beta-lactamase FRET reporter). It is filed as cell-based. The following applies: determination by the method of Effect Embodiment 1; read-out: EC50. An outline of the steps:
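Agonist mode in Tango CMKLR1-bla U2OS cells, 10000 cells/well seeded overnight, then 10-point 3-fold compound dilutions from 10 mM DMSO stock applied for 4 h at 37 °C, 5% CO2. Beta-lactamase reporter read with CCF4-AM FRET substrate; peptide (D-Tyr)-Phe-Leu-Pro-(D-Ser)-Gln-Phe-(D-Ala)-Tic-Ser served as positive control.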

With `CC(C)C[C@@H](C(=O)N1CCC[C@H]1C(=O)N[C@H](CCO)C(=O)N[C@@H](CCC(N)=O)C(=O)N[C@@H](Cc1ccccc1)C(=O)N[C@H](C)C(=O)N1Cc2ccccc2C[C@H]1C(=O)N[C@@H](CO)C(=O)O)N(C)C(=O)[C@H](Cc1ccccc1)NC(=O)[C@H](N)Cc1ccc(O)cc1` [YW-175, (D-Tyr)-Phe-(NMe-Leu)-Pro-(D-HoSer)-Gln-Phe-(D-Ala)-Tic-Ser-OH] (H-[dY]F[NMeL]P[d(hSer)]QF[dA][Tic]S-OH; N-terminus assumed), the negative-log EC50 (pEC50) – broadly, the EC50 on a negative log10 scale, so that one unit is a factor of ten – was 7.04. `CC(C)C[C@@H](C(=O)N1CCC[C@H]1C(=O)N[C@H](CO)C(=O)N[C@@H](CCC(N)=O)C(=O)N[C@@H](Cc1ccccc1)C(=O)N[C@H](C)C(=O)N1Cc2ccccc2C[C@H]1C(=O)N(C)[C@@H](CCO)C(=O)O)N(C)C(=O)[C@H](Cc1ccccc1)NC(=O)[C@H](N)Cc1ccc(O)cc1` [YW-177, (D-Tyr)-Phe-(NMe-Leu)-Pro-(D-Ser)-Gln-Phe-(D-Ala)-Tic-(NMe-HoSer)-OH] (H-[dY]F[NMeL]P[dS]QF[dA][Tic][NMehSer]-OH): the pEC50 was 7.60.

As for `CCCCCCCCCCCCCCCC(=O)NCCOCCOCCOCCOCCOCCOCCOCCOCCC(=O)NCC(=O)NCC(=O)N(C)[C@H](Cc1ccc(O)cc1)C(=O)N[C@@H](Cc1ccccc1)C(=O)N(C)[C@@H](CC(C)C)C(=O)N1CCC[C@H]1C(=O)N[C@H](CO)C(=O)N[C@@H](CCC(N)=O)C(=O)N[C@@H](Cc1ccc2ccccc2c1)C(=O)N[C@H](C)C(=O)N1Cc2ccccc2C[C@H]1C(=O)N(C)[C@@H](CO)C(=O)O` [YW-178, Palm-PEG8-Gly-Gly-(D-NMe-Tyr)-Phe-(NMe-Leu)-Pro-(D-Ser)-Gln-2Nal-(D-Ala)-Tic-(NMe-Ser)] ({Palmitoyl-PEG8}-GG[dNMeY]F[NMeL]P[dS]Q[2Nal][dA][Tic][NMeS]-OH), the pEC50 is 8.68. To `CCCCCCCCCCCCCCCC(=O)NCCOCCOCCOCCOCCOCCOCCOCCOCCC(=O)NCCC(=O)NCCC(=O)N(C)[C@H](Cc1ccc(O)cc1)C(=O)N[C@@H](Cc1ccccc1)C(=O)N(C)[C@@H](CC(C)C)C(=O)N1CCC[C@H]1C(=O)N[C@H](CO)C(=O)N[C@@H](CCC(N)=O)C(=O)N[C@@H](Cc1ccc2ccccc2c1)C(=O)N[C@H](C)C(=O)N1Cc2ccccc2C[C@H]1C(=O)N(C)[C@@H](CO)C(=O)O` [YW-179, Palm-PEG8-(beta-Ala)-(beta-Ala)-(D-NMeTyr)-Phe-(NMe-Leu)-Pro-(D-Ser)-Gln-2Nal-(D-Ala)-Tic-(NMe-Ser)] ({Palmitoyl-PEG8-βAla-βAla}-[dNMeY]F[NMeL]P[dS]Q[2Nal][dA][Tic][NMeS]-OH) belongs 8.68; to `CCCCCCCCCCCCCC(=O)NCCOCCOCCOCCOCCOCCOCCOCCOCCC(=O)NCCC(=O)NCCC(=O)N(C)[C@H](Cc1ccc(O)cc1)C(=O)N[C@@H](Cc1ccccc1)C(=O)N(C)[C@@H](CC(C)C)C(=O)N1CCC[C@H]1C(=O)N[C@H](CO)C(=O)N[C@@H](CCC(N)=O)C(=O)N[C@@H](Cc1ccc2ccccc2c1)C(=O)N[C@H](C)C(=O)N1Cc2ccccc2C[C@H]1C(=O)N(C)[C@@H](CO)C(=O)O` [YW-180, Tetradecanoyl-PEG8-βAla-βAla-(D-NMe-Tyr)-Phe-(NMe-Leu)-Pro-(D-Ser)-Gln-2Nal-(D-Ala)-Tic-(NMe-Ser)] ({Myristoyl-PEG8-βAla-βAla}-[dNMeY]F[NMeL]P[dS]Q[2Nal][dA][Tic][NMeS]-OH), 8.85; to `CCCCCCCCCCCC(=O)NCCOCCOCCOCCOCCOCCOCCOCCOCCC(=O)NCCC(=O)NCCC(=O)N(C)[C@H](Cc1ccc(O)cc1)C(=O)N[C@@H](Cc1ccccc1)C(=O)N(C)[C@@H](CC(C)C)C(=O)N1CCC[C@H]1C(=O)N[C@H](CO)C(=O)N[C@@H](CCC(N)=O)C(=O)N[C@@H](Cc1ccc2ccccc2c1)C(=O)N[C@H](C)C(=O)N1Cc2ccccc2C[C@H]1C(=O)N(C)[C@@H](CO)C(=O)O` [YW-181, Dodecanoyl-PEG8-βAla-βAla-(NMe-D-Tyr)-Phe-(NMe-Leu)-Pro-(D-Ser)-Gln-2Nal-(D-Ala)-Tic-(NMe-Ser)] ({Lauroyl-PEG8-βAla-βAla}-[dNMeY]F[NMeL]P[dS]Q[2Nal][dA][Tic][NMeS]-OH), 8.66. `CC(C)C[C@@H](C(=O)N1CCC[C@H]1C(=O)N[C@H](CO)C(=O)N[C@@H](CCC(N)=O)C(=O)N[C@@H](Cc1ccccc1)C(=O)N[C@H](C)C(=O)N1Cc2ccccc2C[C@@H]1C(=O)N(C)[C@@H](CO)C(=O)O)N(C)C(=O)[C@H](Cc1ccccc1)NC(=O)[C@H](N)Cc1ccc(O)cc1` [YW-182, (D-Tyr)-Phe-(NMe-Leu)-Pro-(D-Ser)-Gln-Phe-(D-Ala)-(D-Tic)-(NMe-Ser)] (H-[dY]F[NMeL]P[dS]QF[dA][dTic][NMeS]-OH): the pEC50 is 7.39. As for `CCN(C(=O)[C@H](Cc1ccccc1)NC(=O)[C@H](N)Cc1ccc(O)cc1)[C@@H](CC(C)C)C(=O)N1CCC[C@H]1C(=O)N[C@H](CO)C(=O)N[C@@H](CCC(N)=O)C(=O)N[C@@H](Cc1ccccc1)C(=O)N[C@H](C)C(=O)N1Cc2ccccc2C[C@H]1C(=O)N[C@@H](CO)C(=O)O` [YW-183, (D-Tyr)-Phe-(NEt-Leu)-Pro-(D-Ser)-Gln-Phe-(D-Ala)-Tic-Ser] (H-[dY]F[NEtLeu]P[dS]QF[dA][Tic]S-OH), the negative-log EC50 (pEC50) was 8.04. For the molecule `CCCN(C(=O)[C@H](Cc1ccccc1)NC(=O)[C@H](N)Cc1ccc(O)cc1)[C@@H](CC(C)C)C(=O)N1CCC[C@H]1C(=O)N[C@H](CO)C(=O)N[C@@H](CCC(N)=O)C(=O)N[C@@H](Cc1ccccc1)C(=O)N[C@H](C)C(=O)N1Cc2ccccc2C[C@H]1C(=O)N[C@@H](CO)C(=O)O` [YW-184, (D-Tyr)-Phe-(NPr-Leu)-Pro-(D-Ser)-Gln-Phe-(D-Ala)-Tic-Ser] (H-[dY]F[X6]P[dS]QF[dA][Tic]S-OH), the pEC50 is 7.80. Turning to `CCN(C(=O)[C@H](Cc1ccccc1)NC(=O)[C@@H](Cc1ccc(O)cc1)NC(=O)CCc1ccccc1)[C@@H](CC(C)C)C(=O)N1CCC[C@H]1C(=O)N[C@H](CO)C(=O)N[C@@H](CCC(N)=O)C(=O)N[C@@H](Cc1ccccc1)C(=O)N[C@H](C)C(=O)N1Cc2ccccc2C[C@H]1C(=O)N[C@@H](CO)C(=O)O` [YW-185, 3-Phenylpropanoyl-(D-Tyr)-Phe-(NEt-Leu)-Pro-(D-Ser)-Gln-Phe-(D-Ala)-Tic-Ser] (Hydrocinnamoyl-[dY]F[NEtLeu]P[dS]QF[dA][Tic]S-OH), the pEC50 is 8.23.

With `CCCN(C(=O)[C@H](Cc1ccccc1)NC(=O)[C@@H](Cc1ccc(O)cc1)NC(=O)CCc1ccccc1)[C@@H](CC(C)C)C(=O)N1CCC[C@H]1C(=O)N[C@H](CO)C(=O)N[C@@H](CCC(N)=O)C(=O)N[C@@H](Cc1ccccc1)C(=O)N[C@H](C)C(=O)N1Cc2ccccc2C[C@H]1C(=O)N[C@@H](CO)C(=O)O` [YW-186, 3-Phenylpropanoyl-(D-Tyr)-Phe-(NPr-Leu)-Pro-(D-Ser)-Gln-Phe-(D-Ala)-Tic-Ser] (Hydrocinnamoyl-[dY]F[X6]P[dS]QF[dA][Tic]S-OH), the pEC50 is 7.96. In the case of `CC(C)C[C@H](NC(=O)[C@H](Cc1ccccc1)NC(=O)[C@H](N)Cc1ccc(O)cc1)C(=O)N1CCC[C@H]1C(=O)N[C@H](CO)C(=O)N[C@@H](CCC(N)=O)C(=O)N[C@@H](Cc1ccccc1)C(=O)N[C@H](C)C(=O)N1Cc2ccccc2C[C@H]1C(=O)N[C@@H](CO)C(N)=O` [YW-189, (D-Tyr)-Phe-Leu-Pro-(D-Ser)-Gln-Phe-(D-Ala)-Tic-Ser-NH2] (H-[dY]FLP[dS]QF[dA][Tic]S-NH2; N-terminus assumed), the pEC50 was 8.17. Regarding `CC(C)C[C@@H](C(=O)N1CCC[C@H]1C(=O)N[C@H](CO)C(=O)N[C@@H](CCC(N)=O)C(=O)N[C@@H](Cc1ccccc1)C(=O)N[C@H](C)C(=O)N1Cc2ccccc2C[C@H]1C(=O)N[C@@H](CO)C(N)=O)N(C)C(=O)[C@H](Cc1ccccc1)NC(=O)[C@H](N)Cc1ccc(O)cc1` [YW-190, (D-Tyr)-Phe-(NMe-Leu)-Pro-(D-Ser)-Gln-Phe-(D-Ala)-Tic-Ser-NH2] (H-[dY]F[NMeL]P[dS]QF[dA][Tic]S-NH2; N-terminus assumed), the negative-log EC50 (pEC50) was 8.57. Take `CC(C)C[C@@H](C(=O)N1CCC[C@H]1C(=O)N[C@H](CO)C(=O)N[C@@H](CCC(N)=O)C(=O)N[C@@H](Cc1ccccc1)C(=O)N[C@H](C)C(=O)N1Cc2ccccc2C[C@H]1C(=O)N[C@@H](CO)C(=O)O)N(C)C(=O)[C@H](Cc1ccccc1)NC(=O)[C@@H](Cc1ccc(O)cc1)N(C)C` [YW-192, DiMe-(D-Tyr)-Phe-(NMe-Leu)-Pro-(D-Ser)-Gln-Phe-(D-Ala)-Tic-Ser] (X10-F[NMeL]P[dS]QF[dA][Tic]S-OH): the pEC50 was 8.59.

With `CCCCCC(=O)N[C@H](Cc1ccc(O)cc1)C(=O)N[C@@H](Cc1ccccc1)C(=O)N(C)[C@@H](CC(C)C)C(=O)N1CCC[C@H]1C(=O)N[C@H](CO)C(=O)N[C@@H](CCC(N)=O)C(=O)N[C@@H](Cc1ccccc1)C(=O)N[C@H](C)C(=O)N1Cc2ccccc2C[C@H]1C(=O)N[C@@H](CO)C(=O)O` [YW-193, Hexanoyl-(D-Tyr)-Phe-(NMe-Leu)-Pro-(D-Ser)-Gln-Phe-(D-Ala)-Tic-Ser] (Hexanoyl-[dY]F[NMeL]P[dS]QF[dA][Tic]S-OH), the pEC50 is 8.85. Regarding `CC(C)C[C@@H](C(=O)N1CCC[C@H]1C(=O)N[C@H](CO)C(=O)N[C@@H](CCC(N)=O)C(=O)N[C@@H](Cc1ccccc1)C(=O)N[C@H](C)C(=O)N1Cc2ccccc2C[C@H]1C(=O)N[C@@H](CO)C(=O)O)N(C)C(=O)[C@H](Cc1ccccc1)NC(=O)[C@@H](Cc1ccc(O)cc1)NC(=O)CC1CCCCC1` [YW-194, (2-Cyclohexylacetyl)-(D-Tyr)-Phe-(NMe-Leu)-Pro-(D-Ser)-Gln-Phe-(D-Ala)-Tic-Ser] (Cyclohexylacetyl-[dY]F[NMeL]P[dS]QF[dA][Tic]S-OH), the pEC50 is 8.92.
